{"source": "paper PMC11864979", "about": "“First-in-class ultralong-target-residence-time p38α inhibitors as a mitosis-targeted therapy for colorectal cancer” (Nature Cancer, 2025)", "key": {"PDO8": {"tested_on": "PDO8", "assay": "cell viability in patient-derived CRC organoids PDO8", "type": "cell-based, human", "protocol": "(§1) For in vitro treatment studies, organoids were mechanically dissociated and digested using TrypLE supplemented with 100 µg ml^−1 DNaseI and 10.5 µM Y-27632 dihydrochloride (Invitrogen) at 37 °C. A total of 1,000–2,000 single cells were plated per well in white 96-well plates (Greiner) in culture medium containing 10% GFR Matrigel or Cultrex BME. The treatment with doxycycline (5 µg ml^−1), pharmacological inhibitors or corresponding volumes of DMSO was started 24 h after plating. Doxycycline was obtained from Sigma-Aldrich. […] Cell viability was measured by means of CellTiter-Glo 3D or CellTiter-Glo 2.0 reagent (Promega) according to the manufacturers’ instructions and the Infinite M Plex reader (Tecan, i-control version 3.9.1 software). Results were normalized to vehicle (DMSO) or to shNC. For cell-doubling assays, the cell number was quantified at the corresponding time points using Guava EasyCyte flow cytometer (Luminex, CytoSoft v5.2 software)."}, "RKO": {"tested_on": "RKO", "assay": "cell viability in human CRC cell line RKO", "type": "cell-based", "protocol": "(§2) To generate KAP^2D cells, KAP organoids were isolated from Matrigel, fragmented by mechanical dissociation and plated without any extracellular matrix on common cell culture dishes. Phoenix-Eco packaging cells (CRL-3214), HCT-15 (CCL-225), HCT 116 (CCL-247), COLO 205 (CCL-222), LS 174T (CL-188), RKO (CRL-2577) and HT-29 (HTB-38) were obtained from the American Type Culture Collection. The cells were cultured at 37 °C and 7% CO2 with RPMI (KAP^2D cells) or DMEM (other cell lines), supplemented with 10% FBS and penicillin–streptomycin. KAP^2D cells were authenticated using PCR (Kras locus and Trp53 locus). Phoenix-Eco packaging cells and HCT-15, HCT 116, COLO 205, LS 174T, RKO and HT-29 cells were authenticated by the provider using short tandem repeat profiling. No commonly misidentified cell lines were used. Mycoplasma contamination was excluded by a PCR-based analysis.\nas §1"}, "KAP organoids": {"tested_on": "KAP organoids", "assay": "cell viability in KAP organoids (CellTiter-Glo)", "type": "cell-based, mouse", "conditions": "for viability at 1 µM: Mus musculus", "protocol": "as §1"}, "COLO 205": {"tested_on": "COLO 205", "assay": "cell viability in human CRC cell line COLO 205", "type": "cell-based", "protocol": "as §2, §1"}}, "note": "Several values for one entry are separate records, joined by “and”; a condition that tells them apart may be missing. Equal entries are not always repeated. Where two headings read alike, the source gives them in different places.", "data": [{"smiles": "CNC(=O)c1ccc2c(c1)C(=O)c1ccc(Nc3ccc(F)c(NC(=O)C4CC4)c3)cc1CC2", "note": "[Compound 2015]", "values": [{"measurement": "viability at 1 µM", "setting": "PDO8; Homo sapiens, 96 h, PDO8, 1 µM, 4 days", "result": 47.8, "unit": "%"}, {"measurement": "Cell viability (%)", "setting": "PDO8; PDO8, 0.5 µM, 4 d, 0.5 µM", "result": "62.35% and 47.16% and 31.30%"}, {"measurement": "Cell viability (%)", "setting": "PDO8; PDO8, 1 µM, 4 days, 1 µM", "result": "40.47% and 33.30%"}, {"measurement": "RKO Cell viability (%)", "setting": "RKO; 0.0137 µM, ED Fig. 9g, Repetition, replicates", "result": "116.22% and 90.48% and 118.38%"}, {"measurement": "RKO Cell viability (%)", "setting": "RKO; 0.0137 µM, ED Fig. 9g, first experiment, replicates", "result": "100.34% and 101.05%"}, {"measurement": "RKO Cell viability (%)", "setting": "RKO; 0.0412 µM, ED Fig. 9g, Repetition, replicates", "result": "83.96% and 99.53%"}, {"measurement": "RKO Cell viability (%)", "setting": "RKO; 0.0412 µM, ED Fig. 9g, first experiment, replicates", "result": "92.30% and 91.06%"}, {"measurement": "RKO Cell viability (%)", "setting": "RKO; 0.1235 µM, ED Fig. 9g, Repetition, replicates", "result": "63.64% and 62.87%"}, {"measurement": "RKO Cell viability (%)", "setting": "RKO; 0.1235 µM, ED Fig. 9g, first experiment, replicates", "result": "80.06% and 70.93%"}, {"measurement": "RKO Cell viability (%)", "setting": "RKO; 0.3704 µM, ED Fig. 9g, Repetition, replicates", "result": "22.09% and 24.58%"}, {"measurement": "RKO Cell viability (%)", "setting": "RKO; 0.3704 µM, ED Fig. 9g, first experiment, replicates", "result": "38.23% and 37.54%"}, {"measurement": "RKO Cell viability (%)", "setting": "RKO; 1.1111 µM, ED Fig. 9g, Repetition, replicates", "result": "19.45% and 19.66%"}, {"measurement": "RKO Cell viability (%)", "setting": "RKO; 1.1111 µM, ED Fig. 9g, first experiment, replicates", "result": "16.15% and 15.81%"}, {"measurement": "RKO Cell viability (%)", "setting": "RKO; 3.3333 µM, ED Fig. 9g, Repetition, replicates", "result": "19.33% and 18.47%"}, {"measurement": "RKO Cell viability (%)", "setting": "RKO; 3.3333 µM, ED Fig. 9g, first experiment, replicates", "result": "14.04% and 13.50%"}, {"measurement": "RKO Cell viability (%)", "setting": "RKO; 10.0000 µM, ED Fig. 9g, Repetition, replicates", "result": "17.62% and 19.44%"}, {"measurement": "RKO Cell viability (%)", "setting": "RKO; 10.0000 µM, ED Fig. 9g, first experiment, replicates", "result": "15.71% and 16.52%"}, {"measurement": "IC50", "setting": "RKO; Homo sapiens, 96 h, RKO, 4 d of treatment", "result": 0.207, "unit": "µM"}, {"measurement": "viability at 0.0137 µM", "setting": "RKO; Homo sapiens, RKO, 0.0137 µM, ED Fig. 9g, first experiment, replicates, read-out: RKO Cell viability (%)", "result": 104, "unit": "%"}, {"measurement": "viability at 0.0412 µM", "setting": "RKO; Homo sapiens, RKO, 0.0412 µM, ED Fig. 9g, Repetition, replicates, read-out: RKO Cell viability (%)", "result": 103, "unit": "%"}, {"measurement": "viability at 0.0412 µM", "setting": "RKO; Homo sapiens, RKO, 0.0412 µM, ED Fig. 9g, first experiment, replicates, read-out: RKO Cell viability (%)", "result": 104, "unit": "%"}, {"measurement": "viability at 0.1235 µM", "setting": "RKO; Homo sapiens, RKO, 0.1235 µM, ED Fig. 9g, Repetition, replicates, read-out: RKO Cell viability (%)", "result": 65.6, "unit": "%"}, {"measurement": "viability at 0.1235 µM", "setting": "RKO; Homo sapiens, RKO, 0.1235 µM, ED Fig. 9g, first experiment, replicates, read-out: RKO Cell viability (%)", "result": 73.7, "unit": "%"}, {"measurement": "viability at 0.3704 µM", "setting": "RKO; Homo sapiens, RKO, 0.3704 µM, ED Fig. 9g, Repetition, replicates, read-out: RKO Cell viability (%)", "result": 25.3, "unit": "%"}, {"measurement": "viability at 0.3704 µM", "setting": "RKO; Homo sapiens, RKO, 0.3704 µM, ED Fig. 9g, first experiment, replicates, read-out: RKO Cell viability (%)", "result": 36.7, "unit": "%"}, {"measurement": "viability at 1.1111 µM", "setting": "RKO; Homo sapiens, RKO, 1.1111 µM, ED Fig. 9g, Repetition, replicates, read-out: RKO Cell viability (%)", "result": 20, "unit": "%"}, {"measurement": "viability at 1.1111 µM", "setting": "RKO; Homo sapiens, RKO, 1.1111 µM, ED Fig. 9g, first experiment, replicates, read-out: RKO Cell viability (%)", "result": 15.3, "unit": "%"}, {"measurement": "viability at 3.3333 µM", "setting": "RKO; Homo sapiens, RKO, 3.3333 µM, ED Fig. 9g, Repetition, replicates, read-out: RKO Cell viability (%)", "result": 19.5, "unit": "%"}, {"measurement": "viability at 3.3333 µM", "setting": "RKO; Homo sapiens, RKO, 3.3333 µM, ED Fig. 9g, first experiment, replicates, read-out: RKO Cell viability (%)", "result": 14.5, "unit": "%"}, {"measurement": "viability at 10 µM", "setting": "RKO; Homo sapiens, RKO, 10.0000 µM, ED Fig. 9g, Repetition, replicates, read-out: RKO Cell viability (%)", "result": 20, "unit": "%"}, {"measurement": "viability at 10 µM", "setting": "RKO; Homo sapiens, RKO, 10.0000 µM, ED Fig. 9g, first experiment, replicates, read-out: RKO Cell viability (%)", "result": 16.2, "unit": "%"}, {"measurement": "Cell viability (%)", "setting": "KAP organoids; Fig. 2b, compound screen, replicates", "result": "20.98% and 10.41% and 17.65%"}, {"measurement": "Cell viability (%)", "setting": "KAP organoids; Fig. 2f, 0,5 µM, replicates, 5 µM", "result": "20.49% and 19.41%"}, {"measurement": "Cell viability (%)", "setting": "KAP organoids; Fig. 2f, 0,25 µM, replicates, 25 µM", "result": "76.91% and 71.00%"}, {"measurement": "Cell viability (%)", "setting": "KAP organoids; Fig. 2f, 1 µM, replicates", "result": "22.79% and 21.48%"}, {"measurement": "viability at 1 µM", "setting": "KAP organoids; Fig. 2f, 1 µM, replicates, read-out: Cell viability (%)", "result": 22.2, "unit": "%"}, {"measurement": "viability at 1 µM", "setting": "KAP organoids; drug screen in KAP organoids, 1 µM concentration, n = 3, mean, read-out: Cell viability (% of DMSO)", "result": 16.4, "unit": "%"}, {"measurement": "induction of cell death in KAP organoids (in words)", "setting": "KAP organoids; viability assay", "result": "increased cell death induction"}, {"measurement": "COLO 205 Cell viability (%)", "setting": "COLO 205; 0.0137 µM, 4 d", "result": "86.20% and 87.62% and 93.54% and 93.70% and 89.28%"}, {"measurement": "COLO 205 Cell viability (%)", "setting": "COLO 205; 0.0412 µM, 4 d", "result": "89.23% and 86.13% and 86.46% and 84.55% and 84.12%"}, {"measurement": "COLO 205 Cell viability (%)", "setting": "COLO 205; 0.1235 µM, 4 d", "result": "81.05% and 83.81% and 80.44% and 77.94% and 85.49% and 51.55%"}, {"measurement": "COLO 205 Cell viability (%)", "setting": "COLO 205; 1.1111 µM, 4 d", "result": "10.16% and 10.58% and 11.54% and 5.54% and 4.72% and 3.60%"}, {"measurement": "COLO 205 Cell viability (%)", "setting": "COLO 205; 3.3333 µM, 4 d", "result": "11.93% and 11.65% and 12.34% and 6.53% and 6.09% and 5.93%"}, {"measurement": "COLO 205 Cell viability (%)", "setting": "COLO 205; 10.0000 µM, 4 d", "result": "14.19% and 14.06% and 18.78% and 17.19% and 10.60%"}, {"measurement": "IC50", "setting": "COLO 205; Homo sapiens, 96 h, COLO 205, 4 d of treatment", "result": 0.151, "unit": "µM"}, {"measurement": "viability at 0.0137 µM", "setting": "COLO 205; Homo sapiens, COLO 205, 96 h, 0.0137 µM, 4 d", "result": 88.4, "unit": "%"}, {"measurement": "viability at 0.0412 µM", "setting": "COLO 205; Homo sapiens, COLO 205, 96 h, 0.0412 µM, 4 d", "result": 88.8, "unit": "%"}]}]}
